Assay results published in patent US9850272B2, “Therapeutically active estratrienthiazole derivatives as inhibitors of 17.beta-hydroxy-steroid dehydrogenase, type 1” (FORENDO PHARMA LTD, priority 2013, dated 2017).
Counter-ions that a name gives are not always drawn.

Tests used:
[1] = target: T1, Recombinant Human 17β-HSD2 (Homo sapiens, UniProt P37059); test: Inhibition of recombinant human 17β-HSD2 (conversion of 3H-estradiol to estrone, HPLC); type: biochemical; settings: inhibitor at 1 μM, 50 nM estradiol, 1 mM NADH, 30 min at RT; for inhibition at 1 µM: read-out: 17β-HSD2 Inhibition % at 1 μM
T1 construct: made in house; host or cells: Sd9 (Sf9) insect cells, baculovirus (Bac to Bac Expression System)
T1 sequence (P37059 1-387): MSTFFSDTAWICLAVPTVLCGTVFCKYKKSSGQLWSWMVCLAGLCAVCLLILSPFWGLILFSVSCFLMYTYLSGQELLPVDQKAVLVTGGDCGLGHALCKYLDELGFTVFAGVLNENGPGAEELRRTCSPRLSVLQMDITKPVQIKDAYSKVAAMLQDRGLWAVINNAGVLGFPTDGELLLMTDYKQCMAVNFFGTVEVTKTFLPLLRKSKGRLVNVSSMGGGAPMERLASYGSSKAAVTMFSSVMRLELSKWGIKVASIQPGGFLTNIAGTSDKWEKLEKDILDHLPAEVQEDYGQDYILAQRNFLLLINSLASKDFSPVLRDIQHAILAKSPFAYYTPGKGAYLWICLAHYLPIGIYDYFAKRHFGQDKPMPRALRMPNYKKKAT
Protocol: 17β-HSD2 Production and Isolation:
Similarly to 17β-HSD1 the Recombinant baculovirus was generated by the “Bac to Bac Expression System” (Invitrogen). Recombinant bacmid was transfected to Sd9 insect cells using “Cellfectin Reagent” (Invitrogen). 60 h later cells were harvested and supernatant were fractionated by the following protocol: • cells were dissolved into 40 ml of A-buffer (40 mM TRIS, pH8.0, 20% glycerol, 20 μM NAD, 0.4 mM PMSF, 150 mM NaCl, 0.5% dodecyl-β-maltoside+protease inhibitor cocktail) • cells were sonicated • lysate was incubated on ice for 15 min • lysate was centrifuged 5000 rpm 15 min, +4° C. • centrifugation of the supernatant 180.000 g 30 min, +4° C. • pellet was dissolved into 8 ml of A-buffer • not resuspended material was removed by centrifugation 5000 rpm 15 min, +4° C. • the clear supernatant was divided into 100 μl aliquots and were stored frozen until determination of enzymatic activity.
The amount of 17β-HSD2 was analysed by immunoblotting and total protein concentration of each extract batch was determined.
Assay—Inhibition of Recombinant Human 17β-HSD2:
Recombinant protein (4 μg/ml) was incubated in 20 mM KH2PO4 pH 8.5 with 50 nM estradiol (including 800.000 cpm/ml of ^3H-estradiol) and 1 mM NADH for 30 min at RT, in the presence of the potential inhibitor at concentrations 1 μM or 0.1 μM. Inhibitor stock solutions were prepared in DMSO. Final concentration of DMSO was adjusted to 1% in all samples. The enzyme reaction was stopped by addition of 10% trichloroacetic acid (final concentration). Samples were centrifuged in a microtiter plate at 4000 rpm for 10 min. Supernatants were applied to reverse phase HPLC on a Waters Symmetry C18 column, equipped with a Waters Sentry Guard column. Isocratic HPLC runs were performed at RT at a flow rate of 1 ml/min in acetonitrile:water 48:52 as running solvent. Radioactivity was monitored in the eluate by a Packard Flow Scintillation Analyzer. Total radioactivity for estrone and estradiol were determined in each sample and percent conversion of estradiol to estrone was calculated according to the following formula:
(§1) Percent inhibition was calculated flowingly: % inhibition=100−% conversion

[2] = target: T2, Recombinant Human 17β-HSD1 (Homo sapiens, UniProt P14061); test: Inhibition of recombinant human 17β-HSD1 (conversion of 3H-estrone to estradiol, HPLC); type: biochemical; settings: inhibitor at 1 μM, 30 nM estrone, 1 mM NADPH, 30 min at RT; for inhibition at 1 µM: read-out: 17β-HDS1 Inhibition % at 1 μM
T2 construct: made in house; host or cells: Sd9 (Sf9) insect cells, baculovirus (Bac to Bac Expression System)
T2 sequence (P14061 1-328): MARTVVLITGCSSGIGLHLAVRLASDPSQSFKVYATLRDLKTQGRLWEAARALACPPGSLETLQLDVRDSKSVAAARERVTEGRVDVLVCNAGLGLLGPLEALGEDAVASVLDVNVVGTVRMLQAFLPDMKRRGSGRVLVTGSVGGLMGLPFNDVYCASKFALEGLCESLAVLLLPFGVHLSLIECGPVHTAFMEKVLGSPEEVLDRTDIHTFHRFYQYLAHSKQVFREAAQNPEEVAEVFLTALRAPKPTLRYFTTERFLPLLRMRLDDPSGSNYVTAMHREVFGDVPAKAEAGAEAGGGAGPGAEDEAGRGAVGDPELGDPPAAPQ
Protocol: 17β-HSD1 Production and Isolation:
Recombinant baculovirus was generated by the “Bac to Bac Expression System” (Invitrogen). Recombinant bacmid was transfected to Sd9 insect cells using “Cellfectin Reagent” (Invitrogen). 60 h later cells were harvested; the microsomal fraction was isolated as described by Puranen, T. J., Poutanen, M. H., Peltoketo, H. E., Vihko, P. T. and Vihko, R. K. (1994) Site-directed mutagenesis of the putative active site of human 17 β-hydroxysteroid dehydrogenase type 1. Biochem. J. 304: 289-293. Aliquots were stored frozen until determination of enzymatic activity.
Assay—Inhibition of Recombinant Human 17β-HSD1:
Recombinant protein (1 μg/ml) was incubated in 20 mM KH2PO4 pH 7.4 with 30 nM estrone (including 800.000 cpm/ml of ^3H-estrone) and 1 mM NADPH for 30 min at RT, in the presence of the potential inhibitor at concentrations 1 μM or 0.1 μM. Inhibitor stock solutions were prepared in DMSO. Final concentration of DMSO was adjusted to 1% in all samples. The enzyme reaction was stopped by addition of 10% trichloroacetic acid (final concentration). Samples were centrifuged in a microtiter plate at 4000 rpm for 10 min. Supernatants were applied to reverse phase HPLC on a Waters Symmetry C18 column, equipped with a Waters Sentry Guard column. Isocratic HPLC runs were performed at RT at a flow rate of 1 ml/min in acetonitrile:water 48:52 as running solvent. Radioactivity was monitored in the eluate by a Packard Flow Scintillation Analyzer. Total radioactivity for estrone and estradiol were determined in each sample and percent conversion of estrone to estradiol was calculated according to the following formula:
as §1

[3] = Metabolic stability assay, human liver microsome and homogenate incubations; type: in vitro ADME; settings: human liver homogenate or microsomes
Protocol: Metabolic Stability Assay The in vitro metabolic stability of the compounds of the invention was determined for exemplified compounds using human liver microsome and homogenate incubations. The incubation time points used with or without appropriate cofactors were 0 min and 60 min. Samples were collected at both time points and substrates were detected using LC/PDA/TOF-MS. In vitro metabolic stability (% remaining after 60 min in human liver homogenate or microsomes) of the compounds were calculated and the results are summarized in Table 3.

Structure (SMILES) | inhibition at 1 µM [1] | inhibition at 1 µM [2] | In vitro metabolic stability, % remaining after 60 min [3] | 17β-HSD2 Inhibition % at 1 μM ([1]; dihydrochloride) | 17β-HDS1 Inhibition % at 1 μM ([2]; dihydrochloride)
CO[C@H]1C[C@@H](CCC(=O)Nc2ncc(C)s2)C2C3CCc4cc(O)ccc4C3CC[C@@]21C (stereo partly drawn) [Compound 17, 3-((13S,15R,17S)-3-hydroxy-17-methoxy-13-methyl-7,8,9,11,12,13,14,15,16,17-decahydro-6H-cyclopenta[a]phenanthren-15-yl)-N-(5-methylthiazol-2-yl)propanamide] | 4% | 79% | 37% | – | –
CCCC[C@]1(O)C[C@@H](CCC(=O)Nc2ncc(C)s2)C2C3CCc4cc(O)ccc4C3CC[C@@]21C (stereo partly drawn) [Compound 19, 3-((13S,15R,17S)-17-butyl-3,17-dihydroxy-13-methyl-7,8,9,11,12,13,14,15,16,17-decahydro-6H-cyclopenta[a]phenanthren-15-yl)-N-(5-methylthiazol-2-yl)propanamide] | 6% | 93% | 90% | – | –
CC(=O)O[C@H]1C[C@@H](CCC(=O)Nc2ncc(C)s2)C2C3CCc4cc(OC(=O)c5ccccc5)ccc4C3CC[C@@]21C (stereo partly drawn) [Compound 55, Benzoic acid (13S,15R,17S)-17-acetoxy-13-methyl-15-[2-(5-methylthiazol-2-ylcarbamoyl)-ethyl]-17-oxo-7,8,9,11,12,13,14,15,16,17-decahydro-6H-cyclopenta[a]phenanthren-3-yl ester] | – | – | 47% | – | –
Cc1cnc(NC(=O)CC[C@@H]2C[C@H](NCc3ccco3)[C@@]3(C)CCC4c5ccc(O)cc5CCC4C23)s1 (stereo partly drawn) [Compound 76, 3-((13S,15R)-17-[(Furan-2-ylmethyl)-amino]-3-hydroxy-13-methyl-7,8,9,11,12,13,14,15,16,17-decahydro-6H-cyclopenta[a]phenanthren-15-yl]-N-(5-methylthiazol-2-yl)propionamide] | 4% | 85% | – | – | –
COCCNC1C[C@@H](CCC(=O)Nc2ncc(C)s2)C2C3CCc4cc(O)ccc4C3CC[C@]12C (stereo partly drawn) [Compound 77, 3-((13S,15R)-3-Hydroxy-17-(2-methoxyethylamino)-13-methyl-7,8,9,11,12,13,14,15,16,17-decahydro-6H-cyclopenta[a]phenanthren-15-yl]-N-(5-methylthiazol-2-yl)propionamide] | 1% | 84% | – | – | –
Cc1cnc(NC(=O)CC[C@@H]2CC(NCCO)[C@@]3(C)CCC4c5ccc(O)cc5CCC4C23)s1 (stereo partly drawn) [Compound 78, 3-((13S,15R)-3-Hydroxy-17-(2-hydroxyethylamino)-13-methyl-7,8,9,11,12,13,14,15,16,17-decahydro-6H-cyclopenta[a]phenanthren-15-yl]-N-(5-methylthiazol-2-yl)propionamide] | 2% | 88% | – | – | –
COCCNC1C[C@@H](CCC(=O)Nc2ncc(C)s2)C2C3CCc4cc(O)c(C(C)(C)C)cc4C3CC[C@]12C (stereo partly drawn) [Compound 79, 3-((13S,15R)-2-tert-Butyl-3-hydroxy-17-(2-methoxyethylamino)-13-methyl-7,8,9,11,12,13,14,15,16,17-decahydro-6H-cyclopenta[a]phenanthren-15-yl)-N-(5-methylthiazol-2-yl)propionamide] | 17% | 75% | – | – | –
Cc1cnc(NC(=O)CC[C@@H]2CC(NCCCN(C)C)[C@@]3(C)CCC4c5ccc(O)cc5CCC4C23)s1 (stereo partly drawn) [Compound 80a, 3-[(13S,15R)-17-(3-Dimethylamino-propylamino)-3-hydroxy-13-methyl-7,8,9,11,12,13,14,15,16,17-decahydro-6H-cyclopenta[a]phenanthren-15-yl]-N-(5-methylthiazol-2-yl)propionamide] | 1% | 70% | – | – | –
Cc1cnc(NC(=O)CC[C@@H]2CC(NCCCN(C)C)[C@@]3(C)CCC4c5ccc(O)cc5CCC4C23)s1 (stereo partly drawn) [Compound 80b, 3-[(13S,15R)-17-(3-Dimethylamino-propylamino)-3-hydroxy-13-methyl-7,8,9,11,12,13,14,15,16,17-decahydro-6H-cyclopenta[a]phenanthren-15-yl]-N-(5-methylthiazol-2-yl)propionamide dihydrochloride] | – | – | – | 2% | 61%
Cc1cnc(NC(=O)CC[C@@H]2CC(NCCN(C)C)[C@@]3(C)CCC4c5ccc(O)cc5CCC4C23)s1 (stereo partly drawn) [Compound 81, 3-[(13S,15R)-17-(2-Dimethylamino-ethylamino)-3-hydroxy-13-methyl-7,8,9,11,12,13,14,15,16,17-decahydro-6H-cyclopenta[a]phenanthren-15-yl]-N-(5-methylthiazol-2-yl)propionamide] | 2% | 71% | – | – | –
